“And” between values parts separate entries of the source, which are not always exact repeats. Identical values can stand only once.
How the values were obtained:
mice [1] = experiment: In vivo delivery of FLuc-mRNA lipid nanoparticles in mice, in vivo imaging (IVIS)
How it was run: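 Mice (n=3) received about 75 μL FLuc-mRNA LNP per mouse intramuscularly (rectus femoris), intravenously (tail vein), intraperitoneally or subcutaneously (back). After injection, D-luciferin (200 μL, 15 mg/mL) was given i.p. 10-15 min before IVIS imaging.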

mice [2] = experiment: In vivo delivery of lipid nanoparticles co-loaded with FLuc-mRNA and Cy5-siRNA in mice; conditions: IV, 1.00:10.00:33.00:56.00, N/P 30
Procedure: Lipid nanoparticles loaded with nucleic acid drugs were prepared according to step 2, replacing FLuc-mRNA with a mixture of FLuc-mRNA (Hongene Biotech Corporation, Shanghai) and Cy5-siRNA. Each mouse was administered a dose of 3 μg FLuc-mRNA and 3 μg Cy5-siRNA. After a certain period of time, in vivo imaging (PerkinElmer, IVIS Lumina III) was performed. For the detection of FLuc-mRNA expression, 200 μL of a 15 mg/mL D-Luciferin working solution was injected intraperitoneally ten to fifteen minutes before imaging, followed by imaging analysis using the in vivo imaging system. 9. Investigation of the Delivery Efficacy of Lipid Nanoparticle Formulations for Compounds in Mice

[3] = Potential characterization of nucleic acid lipid nanoparticle preparations; format: physicochemical
How it was run: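 Zeta potential was read on a Malvern ZEN3700 after diluting 20 μL lipid nanoparticle solution (about 0.04 mg/mL mRNA) into 780 μL ultrapure water. Alternatively, a 27.5 μL sample in 200 μL water was first sized by dynamic light scattering, then diluted with 600 μL more water for potential measurement.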

[4] = Particle size and PDI of nucleic acid lipid nanoparticle preparations by dynamic light scattering; format: physicochemical
How it was run: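 LNP solution (about 0.04 mg/mL mRNA before dilution) was diluted in ultrapure water and mixed by gentle pipetting. Particle size and PDI were then measured by dynamic light scattering.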

[5] = DMG-PEG2000:DSPC:Chol:Lipid 1.00:4.00:65.00:30.00, N/P 6, IV, liver
[6] = DMG-PEG2000:DSPC:Chol:Lipid 1.00:4.00:65.00:30.00, N/P 6, IV, lung
[7] = DMG-PEG2000:DSPC:Chol:Lipid 1.00:4.00:65.00:30.00, N/P 6, IV, spleen
[8] = DMG-PEG2000:DSPC:Chol:Lipid 5.00:10.00:29.00:56.00, N/P 42, IV, liver
[9] = DMG-PEG2000:DSPC:Chol:Lipid 5.00:10.00:29.00:56.00, N/P 42, IV, lung
[10] = DMG-PEG2000:DSPC:Chol:Lipid 5.00:10.00:29.00:56.00, N/P 42, IV, spleen
[11] = mRNA LNP, 1.00:10.00:33.00:56.00, N/P 42, IV, liver
[12] = mRNA LNP, 1.00:10.00:33.00:56.00, N/P 42, IV, lung
[13] = mRNA LNP, 1.00:10.00:33.00:56.00, N/P 42, IV, spleen
[14] = DMG-PEG2000:DSPC:Chol:compound 1.00:10.00:33.00:56.00, N/P 42
[15] = DMG-PEG2000:DSPC:Chol:compound 1.00:10.00:33.00:56.00, N/P 48
[16] = LNP co-loaded with Fluc-mRNA and Cy5-siRNA, DMG-PEG2k:DSPC:Chol:L0263 1.00:10.00:33.00:56.00, N/P 30
[17] = mRNA LNP, 1.00:10.00:33.00:56.00, N/P 42
[18] = DMG-PEG2000:DSPC:Chol:Lipid 1.00:4.00:65.00:30.00, N/P 6, mRNA LNP
[19] = DMG-PEG2000:DSPC:Chol:Lipid 2.18:17.32:60.50:20.00, N/P 30, mRNA LNP
[20] = DMG-PEG2000:DSPC:Chol:Lipid 5.00:10.00:29.00:56.00, N/P 42, mRNA LNP

Zeta potential (mV) [3, 14]: 11.54 mV | Zeta potential (mV) [3, 15]: 16.93 mV | Zeta potential (mV) [3, 16]: 12.77 mV | Zeta potential (mV) [3, 17]: 11.97 mV | PDI [4, 18]: 0.12 ± 0.01 | Particle size [4, 18]: 110.83 ± 1.05 nm | PDI [4, 19]: 0.11 ± 0.02 | Particle size [4, 19]: 126.23 ± 1.69 nm | PDI [4, 20]: 0.12 ± 0.01 | Particle size [4, 20]: 126.40 ± 2.08 nm | PDI [4, 14]: 0.13 and 0.15 | Particle size (nm) [4, 14]: 86.62 nm and 139.47 nm and 118.13 nm | PDI [4, 15]: 0.13 | Particle size (nm) [4, 15]: 118.33 nm | PDI [4, 16]: 0.14 | Particle size (nm) [4, 16]: 95.5 nm | PDI [4, 17]: 0.14 | Particle size (nm) [4, 17]: 97.48 nm
SMILES: CCCCCCCCCCCCNC(=O)C(O)CN(CCCN(C)CCCN(CC(O)C(=O)NCCCCCCCCCCCC)CC(O)C(=O)NCCCCCCCCCCCC)CC(O)C(=O)NCCCCCCCCCCCC (centres unmarked) [Compound L0263]
IVIS (mice [1]; DMG-PEG2000:DSPC:Chol:Lipid 1.00:4.00:65.00:30.00, N/P 6, IV, body): 1.07 × 10^7 | % of organ targeting (mice [1]; [5]): 10.71% | IVIS (mice [1]; [5]): 1.34 × 10^6 | % of organ targeting (mice [1]; [6]): 12.46% | IVIS (mice [1]; [6]): 1.55 × 10^6 | % of organ targeting (mice [1]; [7]): 76.83% | IVIS (mice [1]; [7]): 9.58 × 10^6 | IVIS (mice [1]; DMG-PEG2000:DSPC:Chol:Lipid 2.18:17.32:60.50:20.00, N/P 30, IM, whole body scan): 6.05 × 10^6 | IVIS (mice [1]; DMG-PEG2000:DSPC:Chol:Lipid 5.00:10.00:29.00:56.00, N/P 42, IV, body): 1.83 × 10^8 | % of organ targeting (mice [1]; [8]): 2.01% | IVIS (mice [1]; [8]): 4.24 × 10^6 | % of organ targeting (mice [1]; [9]): 90.12% | IVIS (mice [1]; [9]): 1.90 × 10^8 | % of organ targeting (mice [1]; [10]): 7.87% | IVIS (mice [1]; [10]): 1.66 × 10^7 | IVIS (mice [1]; IP, organ not given, DMG-PEG2000:DSPC:Chol:compound 1.00:10.00:33.00:56.00, N/P 42, Fluc-mRNA): 5.82E+09 | IVIS (mice [1]; IV, body, DMG-PEG2000:DSPC:Chol:compound 1.00:10.00:33.00:56.00, N/P 48, Fluc-mRNA): 7.08E+08 | % of organ targeting (mice [1]; IV, liver, DMG-PEG2000:DSPC:Chol:compound 1.00:10.00:33.00:56.00, N/P 48): 0.44% | IVIS (mice [1]; IV, liver, DMG-PEG2000:DSPC:Chol:compound 1.00:10.00:33.00:56.00, N/P 48, Fluc-mRNA): 1.71E+07 | % of organ targeting (mice [1]; IV, lung, DMG-PEG2000:DSPC:Chol:compound 1.00:10.00:33.00:56.00, N/P 48): 98.92% | IVIS (mice [1]; IV, lung, DMG-PEG2000:DSPC:Chol:compound 1.00:10.00:33.00:56.00, N/P 48, Fluc-mRNA): 3.83E+09 | % of organ targeting (mice [1]; IV, spleen, DMG-PEG2000:DSPC:Chol:compound 1.00:10.00:33.00:56.00, N/P 48): 0.63% | IVIS (mice [1]; IV, spleen, DMG-PEG2000:DSPC:Chol:compound 1.00:10.00:33.00:56.00, N/P 48, Fluc-mRNA): 2.46E+07 | in vivo delivery efficiency as compared to the benchmark compound SM102 (mice [1]; certain formulations, Table 2): superior in vivo delivery efficiency | tissue-targeting specificity (lung vs spleen depending on molar percentage of compound) (mice [1]; certain formulations, Table 2): strong tissue-targeting specificity | % of organ targeting (mice [1]; [11]): 0.46% | IVIS (mice [1]; [11]): 8.07E+06 | % of organ targeting (mice [1]; [12]): 99.18% | IVIS (mice [1]; [12]): 1.74E+09 | % of organ targeting (mice [1]; [13]): 0.36% | IVIS (mice [1]; [13]): 6.30E+06 | IVIS (mice [1]; mRNA LNP, DMG-PEG2000:DSPC:Chol:lipid 1.00:10.00:33.00:56.00, N/P 42, IV, body): 2.93E+08 | % of organ targeting (Fluc) (mice [2]; 10 min, Heart): 0.2% | Fluc IVIS/g Organ (mice [2]; 10 min, Heart): 9.76E+05 | % of organ targeting (Fluc) (mice [2]; 10 min, Kidney): 0.1% | Fluc IVIS/g Organ (mice [2]; 10 min, Kidney): 3.33E+05 | % of organ targeting (Fluc) (mice [2]; 10 min, Liver): 0.1% | Fluc IVIS/g Organ (mice [2]; 10 min, Liver): 5.97E+05 | % of organ targeting (Fluc) (mice [2]; 10 min, Lung): 97.9% | Fluc IVIS/g Organ (mice [2]; 10 min, Lung): 4.98E+08 | % of organ targeting (Fluc) (mice [2]; 10 min, Spleen): 1.7% | Fluc IVIS/g Organ (mice [2]; 10 min, Spleen): 8.58E+06 | % of organ targeting (Fluc) (mice [2]; 20 min, Heart): 0.2% | Fluc IVIS/g Organ (mice [2]; 20 min, Heart): 3.16E+06 | % of organ targeting (Fluc) (mice [2]; 20 min, Kidney): 0.0% | Fluc IVIS/g Organ (mice [2]; 20 min, Kidney): 4.37E+05 | % of organ targeting (Fluc) (mice [2]; 20 min, Liver): 0.1% | Fluc IVIS/g Organ (mice [2]; 20 min, Liver): 1.27E+06 | % of organ targeting (Fluc) (mice [2]; 20 min, Lung): 99.2% | Fluc IVIS/g Organ (mice [2]; 20 min, Lung): 1.98E+09 | % of organ targeting (Fluc) (mice [2]; 20 min, Spleen): 0.6% | Fluc IVIS/g Organ (mice [2]; 20 min, Spleen): 1.13E+07 | % of organ targeting (Fluc) (mice [2]; 1 h, Heart): 0.2% | Fluc IVIS/g Organ (mice [2]; 1 h, Heart): 6.32E+06 | % of organ targeting (Fluc) (mice [2]; 1 h, Kidney): 0.0% | Fluc IVIS/g Organ (mice [2]; 1 h, Kidney): 1.67E+06 | % of organ targeting (Fluc) (mice [2]; 1 h, Liver): 0.1% | Fluc IVIS/g Organ (mice [2]; 1 h, Liver): 3.51E+06 | % of organ targeting (Fluc) (mice [2]; 1 h, Lung): 98.1% | Fluc IVIS/g Organ (mice [2]; 1 h, Lung): 3.70E+09 | % of organ targeting (Fluc) (mice [2]; 1 h, Spleen): 1.6% | Fluc IVIS/g Organ (mice [2]; 1 h, Spleen): 5.86E+07
